System: Streptococcus faecalis
Assay: In vitro antibacterial activity against eleven strains of Streptococcus faecalis (agar dilution method; tube dilution per footnote)
Type: cell-based
Conditions: Enterococcus faecalis, geometric mean against eleven strains of Streptococcus faecalis
From the text: […] faecalis is classified as a species of Group D β-hemolytic streptococci, also known as enterococci. Infections caused by Group D β-hemolytic streptococci, in particular […] faecalis, are generally known to be resistant to cephalosporin antibiotics. The infections caused by Group D streptococci commonly involve the endocardium (endocarditis), the urinary tract, the intestines, the biliary tract, postoperative wounds, and interabdominal abscesses. Endocarditis is clinically a very important disease and is frequently difficult to treat by antibiotic therapy. The disease is commonly treated by infusion of penicillin G in combination with streptomycin or vancomycin. […] The results are shown in Table 1 where the activity is measured by the MIC values, defined as the concentration of the compound capable of inhibiting the growth of the test organism. |In Vitro Antibacterial Activity Against Eleven |Strains of Streptococcus faecalis | *Geometric mean MIC as determined by the tube dilution method against | eleven strains of Streptococcus faecalis.

Row | MIC [µg/mL] | Structure (SMILES)
1 | 3.11 | O=C(CSc1cc(Cl)ccc1Cl)NC1C(=O)N2C(C(=O)O)=C(CO)CS[C@H]12 (stereo partly drawn) [OH, 7-[2-[(2,5-Dichlorophenyl)thio]acetamido]-3-hydroxymethyl-3-cephem-4-carboxylic acid]
2 | 2.13 | Cc1nnc(SCC2=C(C(=O)O)N3C(=O)C(NC(=O)CSc4cc(Cl)ccc4Cl)C3SC2)o1 (stereo not drawn)
3 | 1.37 | O=C(CSc1cc(Cl)ccc1Cl)NC1C(=O)N2C(C(=O)O)=C(CSc3cnsn3)CSC12 (stereo not drawn)
4 | 3.11 | Cn1nnnc1SCC1=C(C(=O)O)N2C(=O)C(NC(=O)CSc3cc(Cl)ccc3Cl)C2SC1 (stereo not drawn)
5 | 1.88 | Cc1nsc(SCC2=C(C(=O)O)N3C(=O)C(NC(=O)CSc4cc(Cl)ccc4Cl)C3SC2)n1 (stereo not drawn)
6 | 2 | CC(=O)OCC1=C(C(=O)O)N2C(=O)C(NC(=O)CSc3cc(Cl)ccc3Cl)C2SC1 (stereo not drawn)
7 | 4.83 | Cn1nnnc1SCC1=C(C(=O)O)N2C(=O)C(NC(=O)CSc3ccc(Cl)c(Cl)c3)C2SC1 (stereo not drawn)

Second part, the compound before the results:

Row | Structure (SMILES) | MIC [µg/mL]
8 | Cn1c(SCC2=C(C(=O)O)N3C(=O)C(NC(=O)CSc4cc(Cl)ccc4Cl)C3SC2)nnc(O)c1=O (stereo not drawn) | 3.76
9 | O=C(CSc1cc(Cl)ccc1Cl)NC1C(=O)N2C(C(=O)O)=C(CSc3ncco3)CSC12 (stereo not drawn) | 1.88
10 | Cc1nnc(SCC2=C(C(=O)O)N3C(=O)C(NC(=O)CSc4cc(Cl)ccc4Cl)C3SC2)s1 (stereo not drawn) | 1.29
11 | Nc1nnc(SCC2=C(C(=O)O)N3C(=O)C(NC(=O)CSc4cc(Cl)ccc4Cl)C3SC2)s1 (stereo not drawn) | 4.26
12 | Cc1nnc(SCC2=C(C(=O)O)N3C(=O)C(NC(=O)CSc4ccc(Cl)c(Cl)c4)C3SC2)s1 (stereo not drawn) | 1.76

Reference: patent publication US4311837A, “Certain heterocyclic thiomethyl derivatives of 7-(dihalogenated phenylthioacetamido)cephalosporanic acids useful in the treatment of infections caused by _Streptococcus faecalis” (Eli Lilly and Company, priority 1980, dated 1982)
